Measured values published in ChEMBL document CHEMBL5380815, “Probing Ligand Binding Sites on Large Proteins by Nuclear Magnetic Resonance Spectroscopy of Genetically Encoded Non-Canonical Amino Acids” (J Med Chem, 2023).
Calls of active or inactive are those of the source. No cut-off for these calls is given here.

Legend:
[1] = tested on: Replicase polyprotein 1ab (Severe acute respiratory syndrome coronavirus 2), P0DTD1 [UNDEFINED MUTATION]; assay: Activation of recombinant SARS-COV2 main protease V297TFAK mutant expressed in Escherichia coli BL21 (DE3) using DABCYL-KTSAVLQSGFRKME-EDANS-NH2 as fluorogenic substrate at 1.5 to 50 uM preincubated for 10 mins followed by substrate addition by FRET assay; details: filed as activator, dose 1.5-50 µM
[2] = tested on: Replicase polyprotein 1ab (Severe acute respiratory syndrome coronavirus 2), P0DTD1 [UNDEFINED MUTATION]; assay: Activation of recombinant SARS-COV2 main protease I213TMSK mutant expressed in Escherichia coli BL21 (DE3) using DABCYL-KTSAVLQSGFRKME-EDANS-NH2 as fluorogenic substrate at 15 uM preincubated for 10 mins followed by substrate addition by FRET assay; details: filed as activator
[3] = tested on: Replicase polyprotein 1ab (Severe acute respiratory syndrome coronavirus 2), P0DTD1 [UNDEFINED MUTATION]; assay: Activation of recombinant SARS-COV2 main protease I213TFAK mutant expressed in Escherichia coli BL21 (DE3) using DABCYL-KTSAVLQSGFRKME-EDANS-NH2 as fluorogenic substrate at 15 uM preincubated for 10 mins followed by substrate addition by FRET assay; details: filed as activator
[4] = tested on: Replicase polyprotein 1ab (Severe acute respiratory syndrome coronavirus 2), P0DTD1 [UNDEFINED MUTATION]; assay: Activation of recombinant SARS-COV2 main protease V297TMSK mutant expressed in Escherichia coli BL21 (DE3) using DABCYL-KTSAVLQSGFRKME-EDANS-NH2 as fluorogenic substrate at 1.5 to 50 uM preincubated for 10 mins followed by substrate addition by FRET assay; details: filed as activator, dose 1.5-50 µM
[5] = tested on: Replicase polyprotein 1ab (Severe acute respiratory syndrome coronavirus 2), P0DTD1 [S46A]; assay: Inhibition of recombinant SARS-COV2 main protease S46A mutant expressed in Escherichia coli BL21 (DE3) using DABCYL-KTSAVLQSGFRKME-EDANS-NH2 as fluorogenic substrate at 16 to 100 nM preincubated for 10 mins followed by substrate addition by FRET assay; details: dose 16-100 nM
[6] = tested on: Replicase polyprotein 1ab (Severe acute respiratory syndrome coronavirus 2), P0DTD1 [UNDEFINED MUTATION]; assay: Inhibition of recombinant SARS-COV2 main protease L50TMSK mutant expressed in Escherichia coli BL21 (DE3) using DABCYL-KTSAVLQSGFRKME-EDANS-NH2 as fluorogenic substrate at 16 to 1000 nM preincubated for 10 mins followed by substrate addition by FRET assay; details: dose 16-1000 nM
[7] = tested on: Replicase polyprotein 1ab (Severe acute respiratory syndrome coronavirus 2), P0DTD1 [L50A]; assay: Inhibition of recombinant SARS-COV2 main protease L50A mutant expressed in Escherichia coli BL21 (DE3) using DABCYL-KTSAVLQSGFRKME-EDANS-NH2 as fluorogenic substrate at 16 to 100 nM preincubated for 10 mins followed by substrate addition by FRET assay; details: dose 16-100 nM
[8] = tested on: Replicase polyprotein 1ab (Severe acute respiratory syndrome coronavirus 2), P0DTD1 [N72A]; assay: Inhibition of recombinant SARS-COV2 main protease N72A mutant expressed in Escherichia coli BL21 (DE3) using DABCYL-KTSAVLQSGFRKME-EDANS-NH2 as fluorogenic substrate at 16 to 100 nM preincubated for 10 mins followed by substrate addition by FRET assay; details: dose 16-100 nM
[9] = tested on: Replicase polyprotein 1ab (Severe acute respiratory syndrome coronavirus 2), P0DTD1 [UNDEFINED MUTATION]; assay: Inhibition of recombinant SARS-COV2 main protease N72TMSK mutant expressed in Escherichia coli BL21 (DE3) using DABCYL-KTSAVLQSGFRKME-EDANS-NH2 as fluorogenic substrate at 16 to 1000 nM preincubated for 10 mins followed by substrate addition by FRET assay; details: dose 16-1000 nM
[10] = tested on: Replicase polyprotein 1ab (Severe acute respiratory syndrome coronavirus 2), P0DTD1 [UNDEFINED MUTATION]; assay: Inhibition of recombinant SARS-COV2 main protease A255TMSK mutant expressed in Escherichia coli BL21 (DE3) using DABCYL-KTSAVLQSGFRKME-EDANS-NH2 as fluorogenic substrate at 16 to 1000 nM preincubated for 10 mins followed by substrate addition by FRET assay; details: dose 16-1000 nM
[11] = tested on: Replicase polyprotein 1ab (Severe acute respiratory syndrome coronavirus 2), P0DTD1 [UNDEFINED MUTATION]; assay: Inhibition of recombinant SARS-COV2 main protease S46TMSK mutant expressed in Escherichia coli BL21 (DE3) using DABCYL-KTSAVLQSGFRKME-EDANS-NH2 as fluorogenic substrate at 16 to 1000 nM preincubated for 10 mins followed by substrate addition by FRET assay; details: dose 16-1000 nM
[12] = tested on: Replicase polyprotein 1ab (Severe acute respiratory syndrome coronavirus 2), P0DTD1 [UNDEFINED MUTATION]; assay: Inhibition of recombinant SARS-COV2 main protease V186TMSK mutant expressed in Escherichia coli BL21 (DE3) using DABCYL-KTSAVLQSGFRKME-EDANS-NH2 as fluorogenic substrate at 16 to 1000 nM preincubated for 10 mins followed by substrate addition by FRET assay; details: dose 16-1000 nM
[13] = tested on: Replicase polyprotein 1ab (Severe acute respiratory syndrome coronavirus 2), P0DTD1 [V186A]; assay: Inhibition of recombinant SARS-COV2 main protease V186A mutant expressed in Escherichia coli BL21 (DE3) using DABCYL-KTSAVLQSGFRKME-EDANS-NH2 as fluorogenic substrate at 16 to 100 nM preincubated for 10 mins followed by substrate addition by FRET assay; details: dose 16-100 nM
[14] = tested on: Replicase polyprotein 1ab (Severe acute respiratory syndrome coronavirus 2), P0DTD1 [N142L]; assay: Inhibition of SARS-COV2 main protease N142L mutant assessed as fold increase in IC50
[15] = tested on: Replicase polyprotein 1ab (Severe acute respiratory syndrome coronavirus 2), P0DTD1 [UNDEFINED MUTATION]; assay: Inhibition of recombinant SARS-COV2 main protease N142TMSK mutant expressed in Escherichia coli BL21 (DE3) using DABCYL-KTSAVLQSGFRKME-EDANS-NH2 as fluorogenic substrate at 16 to 1000 nM preincubated for 10 mins followed by substrate addition by FRET assay; details: dose 16-1000 nM
[16] = tested on: Replicase polyprotein 1ab (Severe acute respiratory syndrome coronavirus 2), P0DTD1 [N142A]; assay: Inhibition of recombinant SARS-COV2 main protease N142A mutant expressed in Escherichia coli BL21 (DE3) using DABCYL-KTSAVLQSGFRKME-EDANS-NH2 as fluorogenic substrate at 16 to 100 nM preincubated for 10 mins followed by substrate addition by FRET assay; details: dose 16-100 nM
[17] = tested on: Replicase polyprotein 1ab (Severe acute respiratory syndrome coronavirus 2), P0DTD1 [UNDEFINED MUTATION]; assay: Inhibition of recombinant SARS-COV2 main protease L50TMSK mutant expressed in Escherichia coli BL21 (DE3) using DABCYL-KTSAVLQSGFRKME-EDANS-NH2 as fluorogenic substrate at 5 to 50 uM preincubated for 10 mins followed by substrate addition by FRET assay; details: dose 5-50 µM
[18] = tested on: Replicase polyprotein 1ab (Severe acute respiratory syndrome coronavirus 2), P0DTD1 [UNDEFINED MUTATION]; assay: Inhibition of recombinant SARS-COV2 main protease N142TMSK mutant expressed in Escherichia coli BL21 (DE3) using DABCYL-KTSAVLQSGFRKME-EDANS-NH2 as fluorogenic substrate at 5 to 50 uM preincubated for 10 mins followed by substrate addition by FRET assay; details: dose 5-50 µM
[19] = tested on: Replicase polyprotein 1ab (Severe acute respiratory syndrome coronavirus 2), P0DTD1 [UNDEFINED MUTATION]; assay: Inhibition of recombinant SARS-COV2 main protease V186TMSK mutant expressed in Escherichia coli BL21 (DE3) using DABCYL-KTSAVLQSGFRKME-EDANS-NH2 as fluorogenic substrate at 5 to 50 uM preincubated for 10 mins followed by substrate addition by FRET assay; details: dose 5-50 µM
[20] = tested on: Replicase polyprotein 1ab (Severe acute respiratory syndrome coronavirus 2), P0DTD1 [UNDEFINED MUTATION]; assay: Inhibition of recombinant SARS-COV2 main protease S46TMSK mutant expressed in Escherichia coli BL21 (DE3) using DABCYL-KTSAVLQSGFRKME-EDANS-NH2 as fluorogenic substrate at 5 to 50 uM preincubated for 10 mins followed by substrate addition by FRET assay; details: dose 5-50 µM
[21] = tested on: Replicase polyprotein 1ab (Severe acute respiratory syndrome coronavirus 2), P0DTD1 [UNDEFINED MUTATION]; assay: Inhibition of recombinant SARS-COV2 main protease A191TMSK mutant expressed in Escherichia coli BL21 (DE3) using DABCYL-KTSAVLQSGFRKME-EDANS-NH2 as fluorogenic substrate at 5 to 50 uM preincubated for 10 mins followed by substrate addition by FRET assay; details: dose 5-50 µM
[22] = tested on: Replicase polyprotein 1ab (Severe acute respiratory syndrome coronavirus 2), P0DTD1 [UNDEFINED MUTATION]; assay: Inhibition of recombinant SARS-COV2 main protease L232TMSK mutant expressed in Escherichia coli BL21 (DE3) using DABCYL-KTSAVLQSGFRKME-EDANS-NH2 as fluorogenic substrate at 5 to 50 uM preincubated for 10 mins followed by substrate addition by FRET assay; details: dose 5-50 µM
[23] = tested on: Replicase polyprotein 1ab (Severe acute respiratory syndrome coronavirus 2), P0DTD1 [UNDEFINED MUTATION]; assay: Inhibition of recombinant SARS-COV2 main protease N72TMSK mutant expressed in Escherichia coli BL21 (DE3) using DABCYL-KTSAVLQSGFRKME-EDANS-NH2 as fluorogenic substrate at 5 to 50 uM preincubated for 10 mins followed by substrate addition by FRET assay; details: dose 5-50 µM
[24] = tested on: Replicase polyprotein 1ab (Severe acute respiratory syndrome coronavirus 2), P0DTD1 [UNDEFINED MUTATION]; assay: Inhibition of recombinant SARS-COV2 main protease A255TMSK mutant expressed in Escherichia coli BL21 (DE3) using DABCYL-KTSAVLQSGFRKME-EDANS-NH2 as fluorogenic substrate at 5 to 50 uM preincubated for 10 mins followed by substrate addition by FRET assay; details: dose 5-50 µM

CCOc1cc2ncc(C#N)c(Nc3ccc(F)c(Cl)c3)c2cc1NC(=O)/C=C/CN(C)C [PELITINIB]
Activity [1]: Dose-Dependent Effect | Activity [2]: Active | Activity [3]: Active | Activity [4]: Dose-Dependent Effect

CC(=O)[C@@H]1CSCC(=O)N[C@H](Cc2ccc(O)cc2)C(=O)N[C@@H](CC(C)C)C(=O)N[C@@H](CCC(N)=O)C(=O)N[C@@H](Cc2ccc(O)cc2)C(=O)N[C@@H](C)C(=O)N[C@@H](C(C)C)C(=O)N[C@@H](CC(C)C)C(=O)N[C@@H](CCCNC(=N)N)C(=O)N[C@@H](Cc2c[nH]cn2)C(=O)N[C@@H](CCCCN)C(=O)N[C@@H](CCCNC(=N)N)C(=O)N[C@@H](CCCNC(=N)N)C(=O)N[C@@H](CCC(=O)O)C(=O)C1
inhibition [5]: Dose-Dependent Effect | inhibition [6]: Dose-Dependent Effect | inhibition [7]: Dose-Dependent Effect | inhibition [8]: Dose-Dependent Effect | inhibition [9]: Dose-Dependent Effect | inhibition [10]: Dose-Dependent Effect | inhibition [11]: Dose-Dependent Effect | inhibition [12]: Dose-Dependent Effect | inhibition [13]: Dose-Dependent Effect | fold change (FC) [14]: 5 | inhibition [15]: Dose-Dependent Effect | inhibition [16]: Dose-Dependent Effect

CCCC[C@@H](C=O)NC(=O)[C@H](CC(C)C)NC(=O)OCc1ccccc1
inhibition [17]: Dose-Dependent Effect | inhibition [18]: Dose-Dependent Effect | inhibition [19]: Dose-Dependent Effect | inhibition [20]: Dose-Dependent Effect | inhibition [21]: Dose-Dependent Effect | inhibition [22]: Dose-Dependent Effect | inhibition [23]: Dose-Dependent Effect | inhibition [24]: Dose-Dependent Effect
